Measurements: PubChem BioAssay AID1963869 (Molecular Pharmacology Branch, DTP, NCI, 2024)

System: KRAS patient-derived spheroids with HUVEC/MSC, viability
Experiment: Anticancer human tumor 323965-272-R-J2-PDC patient-derived pancreatic carcinoma cell line growth inhibition [KRAS2]
Settings: for viability, T/C: stronger effect = lower value
Outline: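 KRAS-mutant tumor cells were grown as spheroids with HUVEC endothelial cells and human MSCs as stroma. Targeted agents were tested alone and with KRAS pathway inhibitors. Doses started at or near clinical Cmax, or 10 microM, descending half-log.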

[1] = curve of first compound, second compound 0.1 µM
[2] = curve of first compound, second compound 0.316 µM
[3] = curve of first compound, second compound 1 µM
[4] = curve of first compound, second compound 3.16 µM
[5] = curve of first compound, second compound 10 µM
[6] = second compound 0.1 µM, first compound 0.0316 µM
[7] = second compound 0.1 µM, first compound 0.1 µM
[8] = second compound 0.1 µM, first compound 0.316 µM
[9] = second compound 0.1 µM, first compound 1 µM
[10] = second compound 0.1 µM, first compound 3.16 µM
[11] = second compound 0.1 µM, first compound 10 µM
[12] = second compound 0.316 µM, first compound 0.0316 µM
[13] = second compound 0.316 µM, first compound 0.1 µM
[14] = second compound 0.316 µM, first compound 0.316 µM
[15] = second compound 0.316 µM, first compound 1 µM
[16] = second compound 0.316 µM, first compound 3.16 µM
[17] = second compound 0.316 µM, first compound 10 µM
[18] = second compound 1 µM, first compound 0.0316 µM
[19] = second compound 1 µM, first compound 0.1 µM
[20] = second compound 1 µM, first compound 0.316 µM
[21] = second compound 1 µM, first compound 1 µM
[22] = second compound 1 µM, first compound 3.16 µM
[23] = second compound 1 µM, first compound 10 µM
[24] = second compound 3.16 µM, first compound 0.0316 µM
[25] = second compound 3.16 µM, first compound 0.1 µM
[26] = second compound 3.16 µM, first compound 0.316 µM
[27] = second compound 3.16 µM, first compound 1 µM
[28] = second compound 3.16 µM, first compound 3.16 µM
[29] = second compound 3.16 µM, first compound 10 µM
[30] = second compound 10 µM, first compound 0.0316 µM
[31] = second compound 10 µM, first compound 0.1 µM
[32] = second compound 10 µM, first compound 0.316 µM
[33] = second compound 10 µM, first compound 1 µM
[34] = second compound 10 µM, first compound 3.16 µM
[35] = second compound 10 µM, first compound 10 µM
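Also: spheroids exposed to agents for 7 days.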
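For viability, T/C in this document: 100% = DMSO vehicle control viability.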

Row | SMILES | IC50 [1] [nM] | IC50 [2] [nM] | IC50 [3] [nM] | IC50 [4] [nM] | IC50 [5] [nM] | viability, T/C [6] [%] | viability, T/C [7] [%] | viability, T/C [8] [%] | viability, T/C [9] [%] | viability, T/C [10] [%] | viability, T/C [11] [%] | viability, T/C [12] [%] | viability, T/C [13] [%] | viability, T/C [14] [%] | viability, T/C [18] [%] | viability, T/C [19] [%] | viability, T/C [24] [%] | viability, T/C [25] [%] | viability, T/C [30] [%] | viability, T/C [31] [%] | further results
1 | CCNC(=O)CC1N=C(c2ccc(Cl)cc2)c2cc(OC)ccc2-n2c(C)nnc21 (stereo not given) + CC1OCC2(CCN(c3cnc(Sc4ccnc(N)c4Cl)c(N)n3)CC2)C1N | 244 | 146 | < 31.6 | < 31.6 | < 31.6 | 74.6 | 63.5 | 44.9 | 36.3 | 28.6 | 27.4 | 63.3 | 57.8 | 34.4 | 45.6 | 35.5 | 16.2 | 20.8 | 16.6 | 16.3 | viability, T/C [15]: 28%; viability, T/C [16]: 25.2%; viability, T/C [17]: 22.6%; viability, T/C [20]: 27.2%; viability, T/C [21]: 22.2%; viability, T/C [22]: 11.9%; viability, T/C [23]: 7.8%; viability, T/C [26]: 14.3%; viability, T/C [27]: 13.1%; viability, T/C [28]: 6.89%; viability, T/C [29]: 4.84%; viability, T/C [32]: 14.9%; viability, T/C [33]: 8.18%; viability, T/C [34]: 6.22%; viability, T/C [35]: 3.88%
2 | CC(C)n1nc(-c2ccc3oc(N)nc3c2)c2c(N)ncnc21 + CNCc1ccccc1-c1csc(C(C)Nc2nc(C)nc3cc(OC)c(OC)cc23)c1 | 2.12 | 2 | 2.72 | 2.45 | < 0.316 | 22.7 | 17.9 | – | – | – | – | 19.3 | 16.8 | – | 19.1 | 15.6 | 9.29 | 9.2 | 0.12 | 0.35 | viability, T/C (second compound 0.1 µM, first compound 0.000316 µM): 84.4%; viability, T/C (second compound 0.1 µM, first compound 0.001 µM): 58.7%; viability, T/C (second compound 0.1 µM, first compound 0.00316 µM): 47.6%; viability, T/C (second compound 0.1 µM, first compound 0.01 µM): 30.1%; viability, T/C (second compound 0.316 µM, first compound 0.000316 µM): 78.2%; viability, T/C (second compound 0.316 µM, first compound 0.001 µM): 60.8%; viability, T/C (second compound 0.316 µM, first compound 0.00316 µM): 43.1%; viability, T/C (second compound 0.316 µM, first compound 0.01 µM): 28.2%; viability, T/C (second compound 1 µM, first compound 0.000316 µM): 80.6%; viability, T/C (second compound 1 µM, first compound 0.001 µM): 71.5%; viability, T/C (second compound 1 µM, first compound 0.00316 µM): 44.6%; viability, T/C (second compound 1 µM, first compound 0.01 µM): 29.8%; viability, T/C (second compound 3.16 µM, first compound 0.000316 µM): 89%; viability, T/C (second compound 3.16 µM, first compound 0.001 µM): 76%; viability, T/C (second compound 3.16 µM, first compound 0.00316 µM): 42.9%; viability, T/C (second compound 3.16 µM, first compound 0.01 µM): 16%; viability, T/C (second compound 10 µM, first compound 0.000316 µM): 0.23%; viability, T/C (second compound 10 µM, first compound 0.001 µM): 0.23%; viability, T/C (second compound 10 µM, first compound 0.00316 µM): 0.19%; viability, T/C (second compound 10 µM, first compound 0.01 µM): 0.16%
3 | CC1OCC2(CCN(c3cnc(Sc4ccnc(N)c4Cl)c(N)n3)CC2)C1N (stereo not given) + COc1cc2nc(C)nc(NC(C)c3cc(N)cc(C(F)(F)F)c3)c2cc1OC1CCOC1 | 118 | 54.9 | < 31.6 | < 31.6 | < 31.6 | 66.7 | 49.4 | 41.4 | 33 | 24.1 | 21.1 | 52.5 | 47.9 | 40.2 | 43.5 | 34.6 | 46.6 | 33.7 | 49.2 | 35.6 | viability, T/C [15]: 27.5%; viability, T/C [16]: 26.1%; viability, T/C [17]: 19.1%; viability, T/C [20]: 31.1%; viability, T/C [21]: 24.7%; viability, T/C [22]: 19.4%; viability, T/C [23]: 20.6%; viability, T/C [26]: 29.6%; viability, T/C [27]: 17.7%; viability, T/C [28]: 13.8%; viability, T/C [29]: 16.9%; viability, T/C [32]: 17.5%; viability, T/C [33]: 12.9%; viability, T/C [34]: 11.5%; viability, T/C [35]: 11.4%
4 | COc1cc2nc(C)nc(NC(C)c3cc(N)cc(C(F)(F)F)c3)c2cc1OC1CCOC1 (stereo not given) | – | – | – | – | – | – | – | – | – | – | – | – | – | – | – | – | – | – | – | – | viability, T/C (compound 0.316 µM): 75.7% [middle of 17 runs]; viability, T/C (compound 3.16 µM): 77.2% [middle of 17 runs]; IC50 (compound alone, run of 08/19/2021): > 10000 nM; IC50 (compound alone, run of 08/26/2021): > 10000 nM; IC50 (compound alone, run of 09/02/2021): > 10000 nM
